Measured values from ChEMBL document CHEMBL5036302, “Amphiol, an Antifungal Fungal Pigment from Pseudogymnoascus sp. PF1464” (2021).
≈ marks a conversion by molar mass, not a printed value.

Legend:
Type in all cases: functional
Candida albicans = assay: Antifungal activity against Candida albicans assessed as inhibition of fungal growth by CLSI protocol based microbroth dilution method
[1] = test system: Schizosaccharomyces pombe; assay: Antifungal activity against Schizosaccharomyces pombe assessed as inhibition of fungal growth by CLSI protocol based microbroth dilution method
Staphylococcus aureus = assay: Antibacterial activity against Staphylococcus aureus assessed as inhibition of bacterial growth by CLSI protocol based microbroth dilution method
Aspergillus fumigatus = assay: Antifungal activity against Aspergillus fumigatus assessed as inhibition of fungal growth by CLSI protocol based microbroth dilution method
Escherichia coli = assay: Antibacterial activity against Escherichia coli assessed as inhibition of bacterial growth by CLSI protocol based microbroth dilution method

MIC (Candida albicans) [µg/mL] | MIC [1] [µg/mL] | MIC (Staphylococcus aureus) [µg/mL] | MIC (Aspergillus fumigatus) [µg/mL] | MIC (Escherichia coli) [µg/mL] | SMILES
8 (≈ 12.5 µM) | 0.8 (≈ 1.25 µM) | > 64 | 16 (≈ 25 µM) | > 64 | CC(/C=C/C=C/C=C/C=C/C=C/C=C/c1cc(O)c([C@@H]2O[C@H](CO)[C@@H](O)[C@H](O)[C@H]2O)c(=O)o1)=C\[C@H](C)C(=O)[C@@H](C)C[C@@H](C)[C@H](C)O
 | 0.13 (≈ 0.141 µM) |  |  |  | C[C@@H]1[C@H](O)[C@@H](C)/C=C/C=C/C=C/C=C/C=C/C=C/C=C/[C@H](O[C@@H]2O[C@H](C)[C@@H](O)[C@H](N)[C@@H]2O)C[C@@H]2O[C@](O)(C[C@@H](O)C[C@@H](O)[C@H](O)CC[C@@H](O)C[C@@H](O)CC(=O)O[C@H]1C)C[C@H](O)[C@H]2C(=O)O [AMPHOTERICIN B]
